The values below come from patent publication US10251889B2, “Substituted pyrazolo[1,5-a]pyrimidine compounds as Trk kinase inhibitors” (Array BioPharma, Inc., priority 2009, dated 2019).

The target of the assay is Jak2 (human Jak2 kinase domain, amino acids 808-1132) (Homo sapiens (Human), UniProt O60674). Briefly: Jak2 inhibition assay (Omnia kinase assay). In kind it is biochemical. To be noted: read-out: Jak2 Enzyme (% inhibition at 1000 nM), Table 1; 1000 nM test compound.
Sequence of Jak2 (human Jak2 kinase domain, amino acids 808-1132) (O60674 808-1132): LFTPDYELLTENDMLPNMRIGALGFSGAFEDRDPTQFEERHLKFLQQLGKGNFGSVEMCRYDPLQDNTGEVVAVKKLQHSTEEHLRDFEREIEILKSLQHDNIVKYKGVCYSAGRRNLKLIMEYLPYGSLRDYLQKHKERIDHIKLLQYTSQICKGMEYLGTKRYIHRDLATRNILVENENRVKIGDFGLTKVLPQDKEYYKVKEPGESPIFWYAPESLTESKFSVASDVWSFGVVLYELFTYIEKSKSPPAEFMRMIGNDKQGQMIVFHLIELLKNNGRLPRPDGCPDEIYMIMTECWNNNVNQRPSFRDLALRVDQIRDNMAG
For the compound `COCCNC(=O)c1cnn2ccc(N3CCC[C@@H]3c3cc(F)cnc3C)nc12` [Example 191, (R)-5-(2-(5-fluoro-2-methylpyridin-3-yl)pyrrolidin-1-yl)-N-(2-methoxyethyl)pyrazolo[1,5-a]pyrimidine-3-carboxamide], the inhibition (commonly how much of the control response was suppressed) at 1 µM stood at 4.8%. Then `CC[C@@H](CO)NC(=O)c1cnn2ccc(N3CCC[C@@H]3c3cc(F)ccc3F)nc12` [Example 178, 5-((R)-2-(2,5-difluorophenyl)pyrrolidin-1-yl)-N-((S)-1-hydroxybutan-2-yl)pyrazolo[1,5-a]pyrimidine-3-carboxamide], with 16.9%; and `O=C(NC[C@H](O)CO)c1cnn2ccc(N3CCC[C@@H]3c3cc(F)ccc3C(F)(F)F)nc12` [Example 62, N—((S)-2,3-dihydroxypropyl)-5-((R)-2-(5-fluoro-2-(trifluoromethyl)phenyl)pyrrolidin-1-yl)pyrazolo[1,5-a]pyrimidine-3-carboxamide], with 35.2%; and `CC1(NC(=O)c2cnn3ccc(N4CCC[C@@H]4c4cncc(F)c4)nc23)CCC1` [Example 102, (R)-5-(2-(5-fluoropyridin-3-yl)pyrrolidin-1-yl)-N-(1-methylcyclobutyl)pyrazolo[1,5-a]pyrimidine-3-carboxamide], with 17.3%. With `CC(C)NC(=O)c1cnn2ccc(N3CCC[C@@H]3c3cc(F)cn(C)c3=O)nc12` [Example 227, (R)-5-(2-(5-fluoro-1-methyl-2-oxo-1,2-dihydropyridin-3-yl)pyrrolidin-1-yl)-N-isopropylpyrazolo[1,5-a]pyrimidine-3-carboxamide] the figure was 62.8%. With `O=C(Nc1ccccn1)c1cnn2ccc(N3CCC[C@@H]3c3cc(F)ccc3F)nc12` [Example 2, (R)-5-(2-(2,5-difluorophenyl)pyrrolidin-1-yl)-N-(pyridin-2-yl)pyrazolo[1,5-a]pyrimidine-3-carboxamide] the figure was 19.1%. As for `CC(C)NC(=O)c1cnn2ccc(N3[C@@H](c4cncc(F)c4)CC[C@@]3(C)CO)nc12` [Example 219, 5-((2 S, 5R)-5-(5-fluoropyridin-3-yl)-2-(hydroxymethyl)-2-methylpyrrolidin-1-yl)-N-isopropylpyrazolo[1,5-a]pyrimidine-3-carboxamide], the inhibition at 1 µM is 25.5%. On to `O=C(c1cnn2ccc(N3CCC[C@@H]3c3cncc(F)c3)nc12)N1CCCCC1` [Example 137, (R)-(5-(2-(5-fluoropyridin-3-yl)pyrrolidin-1-yl)pyrazolo[1,5-a]pyrimidin-3-yl)(piperidin-1-yl)methanone], for which the inhibition at 1 µM came to 3.6%. Turning to `COc1ncc(F)cc1[C@H]1CCCN1c1ccn2ncc(C(=O)N3CC(C)(O)C3)c2n1` [Example 147, (R)-(5-(2-(5-fluoro-2-methoxypyridin-3-yl)pyrrolidin-1-yl)pyrazolo[1,5-a]pyrimidin-3-yl)(3-hydroxy-3-methylazetidin-1-yl)methanone], the inhibition at 1 µM was determined as 0.9%.

`CC(C)(CF)NC(=O)c1cnn2ccc(N3CCC[C@@H]3c3cncc(F)c3)nc12` [Example 71, (R)—N-(1-fluoro-2-methylpropan-2-yl)-5-(2-(5-fluoropyridin-3-yl)pyrrolidin-1-yl)pyrazolo[1,5-a]pyrimidine-3-carboxamide]: the inhibition at 1 µM was 6.2%. Then `COc1ncc(F)cc1[C@H]1CCCN1c1ccn2ncc(C(=O)NC(C)(C)CF)c2n1` [Example 81, (R)-5-(2-(5-fluoro-2-methoxypyridin-3-yl)pyrrolidin-1-yl)-N-(1-fluoro-2-methylpropan-2-yl)pyrazolo[1,5-a]pyrimidine-3-carboxamide], with 54.4%; and `Cn1cc(F)cc([C@H]2CCCN2c2ccn3ncc(C(=O)N[C@H]4CC[C@H](O)CC4)c3n2)c1=O` [Example 238, 5-((R)-2-(5-fluoro-1-methyl-2-oxo-1,2-dihydropyridin-3-yl)pyrrolidin-1-yl)-N-((trans)-4-hydroxycyclohexyl)pyrazolo[1,5-a]pyrimidine-3-carboxamide], with 58.9%. With `O=C(NOCC1CC1)c1cnn2ccc(N3CCC[C@@H]3c3cc(F)ccc3F)nc12` [Example 66, (R)—N-(cyclopropylmethoxy)-5-(2-(2,5-difluorophenyl)pyrrolidin-1-yl)pyrazolo[1,5-a]pyrimidine-3-carboxamide] the figure was 24.7%. Then `C[C@H](CO)NC(=O)c1cnn2ccc(N3CCC[C@@H]3c3cncc(F)c3)nc12` [Example 115, 5-((R)-2-(5-fluoropyridin-3-yl)pyrrolidin-1-yl)-N-((R)-1-hydroxypropan-2-yl)pyrazolo[1,5-a]pyrimidine-3-carboxamide], with 12.6%; and `CC(C)(CN1CCOCC1)NC(=O)c1cnn2ccc(N3CCC[C@@H]3c3cc(F)ccc3F)nc12` [Example 9, (R)-5-(2-(2,5-difluorophenyl)pyrrolidin-1-yl)-N-(2-methyl-1-morpholinopropan-2-yl)pyrazolo[1,5-a]pyrimidine-3-carboxamide], with 4.6%; and `O=C(NC1CC1)c1cnn2ccc(N3CCC[C@@H]3c3cc(F)ccc3F)nc12` [Example 13, (R)—N-cyclopropyl-5-(2-(2,5-difluorophenyl)pyrrolidin-1-yl)pyrazolo[1,5-a]pyrimidine-3-carboxamide], with 41.4%.

Regarding `CC(C)(CO)NC(=O)c1cnn2ccc(N3CCC[C@@H]3c3cc(F)ccc3F)nc12` [Example 8, (R)-5-(2-(2,5-difluorophenyl)pyrrolidin-1-yl)-N-(1-hydroxy-2-methylpropan-2-yl)pyrazolo[1,5-a]pyrimidine-3-carboxamide], the inhibition at 1 µM came to 25.7%. Then `CC1(O)CCC(NC(=O)c2cnn3ccc(N4CCC[C@@H]4c4cc(F)ccc4F)nc23)CC1` (single isomer, unassigned; diastereomer 1) [Example 50], with 73.7%; and `O=C(NC1CCC1)c1cnn2ccc(N3CCC[C@@H]3c3cc(F)ccc3F)nc12` [Example 14, (R)—N-cyclobutyl-5-(2-(2,5-difluorophenyl)pyrrolidin-1-yl)pyrazolo[1,5-a]pyrimidine-3-carboxamide], with 66.7%. Then `O=C(NC1CC1)c1cnn2ccc(N3CCC[C@@H]3c3cccc(F)c3)nc12` [Example 37, (R)—N-cyclopropyl-5-(2-(3-fluorophenyl)pyrrolidin-1-yl)pyrazolo[1,5-a]pyrimidine-3-carboxamide], with 25%. Then `O=C(O)C1CCN(C(=O)c2cnn3ccc(N4CCC[C@@H]4c4cc(F)ccc4F)nc23)CC1` [Example 11, (R)-1-(5-(2-(2,5-difluorophenyl)pyrrolidin-1-yl)pyrazolo[1,5-a]pyrimidine-3-carbonyl)piperidine-4-carboxylic Acid], with 10.1%. With `Cc1ncc(F)cc1[C@H]1CCCN1c1ccn2ncc(C(=O)NCCO)c2n1` [Example 188, (R)-5-(2-(5-fluoro-2-methylpyridin-3-yl)pyrrolidin-1-yl)-N-(2-hydroxyethyl)pyrazolo[1,5-a]pyrimidine-3-carboxamide], the inhibition at 1 µM is 9.3%. Then `O=C(N[C@H]1CCC[C@@H]1O)c1cnn2ccc(N3CCC[C@@H]3c3cncc(F)c3)nc12` [Example 103, 5-((R)-2-(5-fluoropyridin-3-yl)pyrrolidin-1-yl)-N-((1S,2S)-2-hydroxycyclopentyl)pyrazolo[1,5-a]pyrimidine-3-carboxamide], with 4.5%.

As for `COc1ncc(F)cc1[C@H]1CCCN1c1ccn2ncc(C(=O)NC[C@H](O)CO)c2n1` [Example 143, N—((S)-2,3-dihydroxypropyl)-5-((R)-2-(5-fluoro-2-methoxypyridin-3-yl)pyrrolidin-1-yl)pyrazolo[1,5-a]pyrimidine-3-carboxamide], the inhibition at 1 µM was 7%. Regarding `CC1(NC(=O)c2cnn3ccc(N4[C@H](CO)CC[C@@H]4c4cncc(F)c4)nc23)CC1` [Example 214, 5-((2R,5S)-2-(5-fluoropyridin-3-yl)-5-(hydroxymethyl)pyrrolidin-1-yl)-N-(1-methylcyclopropyl)pyrazolo[1,5-a]pyrimidine-3-carboxamide], the inhibition at 1 µM came out at 29.7%. With `COc1ncc(F)cc1[C@H]1CCCN1c1ccn2ncc(C(=O)N[C@H]3CC[C@H](O)C3)c2n1` [Example 154, 5-((R)-2-(5-fluoro-2-methoxypyridin-3-yl)pyrrolidin-1-yl)-N-((1S,3S)-3-hydroxycyclopentyl)pyrazolo[1,5-a]pyrimidine-3-carboxamide] the figure was 64.4%; with `CC(C)(C#N)NC(=O)c1cnn2ccc(N3CCC[C@@H]3c3cncc(F)c3)nc12` [Example 69, (R)—N-(2-cyanopropan-2-yl)-5-(2-(5-fluoropyridin-3-yl)pyrrolidin-1-yl)pyrazolo[1,5-a]pyrimidine-3-carboxamide], 6%; with `O=C(NCCn1ccnc1)c1cnn2ccc(N3CCC[C@@H]3c3cc(F)ccc3F)nc12` [Example 28, (R)—N-(2-(1H-imidazol-1-yl)ethyl)-5-(2-(2,5-difluorophenyl)pyrrolidin-1-yl)pyrazolo[1,5-a]pyrimidine-3-carboxamide], 5%. Then `CC(C)(C)NC(=O)c1cnn2ccc(N3CCC[C@@H]3c3cc(F)c[nH]c3=O)nc12` [Example 202, (R)—N-tert-butyl-5-(2-(5-fluoro-2-oxo-1,2-dihydropyridin-3-yl)pyrrolidin-1-yl)pyrazolo[1,5-a]pyrimidine-3-carboxamide], with 11.5%.

Consider `CS(=O)(=O)NCCNC(=O)c1cnn2ccc(N3CCC[C@@H]3c3cc(F)ccc3F)nc12` [Example 46, (R)-5-(2-(2,5-difluorophenyl)pyrrolidin-1-yl)-N-(2-(methylsulfonamido)ethyl)pyrazolo[1,5-a]pyrimidine-3-carboxamide], for which the inhibition at 1 µM was found to be 13.8%. With `O=C(NC1(CO)CC1)c1cnn2ccc(N3CCC[C@@H]3c3cc(F)ccc3F)nc12` [Example 16, (R)-5-(2-(2,5-difluorophenyl)pyrrolidin-1-yl)-N-(1-(hydroxymethyl)cyclopropyl)pyrazolo[1,5-a]pyrimidine-3-carboxamide] the figure was 31.7%.
